Measured values: a melting point compilation (Tetko et al.; mined from patent text by program, amines drawn as free bases though some values may be those of a salt)

Compound | melting point
O=[N+]([O-])N=C1N(COCCBr)CCN1Cc1ccc(Cl)nc1 | 90 to 92 °C
CC(C)c1[nH]nc(C(N)=O)c1[N+](=O)[O-] | 179 to 180 °C
CC(=O)Oc1ccc(C(=O)Nc2ncc(S(C)(=O)=O)s2)cc1 | 280 to 281 °C
Cc1ccc(Nc2c(C)cc(Cl)cc2Cl)c(CC(=O)N(C)C)c1 | 119 to 124 °C
CCOCCNC(=O)n1cc(F)c(=O)[nH]c1=O | 134 to 135 °C
O=c1oc(=O)n(C2CC2)c2cc(F)c(F)cc12 | 138 to 139 °C
CCc1cc(CNc2nc3ccccc3o2)c(=O)[nH]c1C | 211 to 213 °C
CNC(=O)c1cccc(I)c1 | 94 to 97 °C
O=[N+]([O-])c1ccc(C2SCCCS2)c(CO)c1 | 130 to 131 °C
CCOC(=O)C1=C(COCc2nnnn2CCNc2nc(N)n[nH]2)NC(C)=C(C(=O)OC)C1c1cccc(Cl)c1Cl (stereo not drawn) | 70 °C
OC1CSC(Oc2cncc(-c3cccs3)c2)C(O)C1O (stereo not drawn) | 205 °C
Cc1ccc2c(c1)/C(=N\NC(N)=O)C(=O)N2CCCN(C(C)C)C(C)C | 145 to 148 °C
O=C(O)[C@@H]1C[C@H]2C[C@@H](CCc3cc(O)no3)CC[C@H]2CN1 (racemic) | 256 °C
Cn1cnc(S(=O)(=O)NCCCN2CCOCC2)c1 | 148 to 149 °C
CCN(CC)OCc1cc(C(C)(C)C)c(O)c(C(C)(C)C)c1 | 129 to 137 °C
COc1ccc2[nH]c(SCc3ncnc(N4CCCCC4)c3C)nc2c1 | 94 to 96 °C
CCC[C@H]1CC[C@H](CCc2cc(F)c(C#N)c(F)c2)CC1 | 27.3 °C
Cc1sc(C=O)c(C)c1C | 45 to 46 °C
CON(C)C(=O)C(C)NC(=O)OC(C)(C)C (stereo not drawn) | 150 to 151 °C
CSC1NC(=O)N(C)C(=O)N1N (stereo not drawn) | 174 to 175 °C
Cc1ccc(COc2ncc(F)c(NS(C)(=O)=O)n2)cc1 | 145 to 148 °C

Compound | melting point
O=C1c2c(Cl)cccc2-n2cnc(C#Cc3cccc(Cl)c3)c2[C@@H]2CCCN12 | 207 to 209 °C
COc1ccc(OC)c2c1CCC(C#N)C2C#N (stereo not drawn) | 126 to 127 °C
CCCCCCCCCCCCOS(=O)(=O)O | 72 °C
COc1cc(F)c(C=O)cc1O | 153 to 154 °C
CC(=O)N[C@H]1CCC(=O)N2CCC[C@@H](C(=O)OC(C)(C)C)N2C1=O | 162 to 163 °C
Fc1ccc(-c2ncn(C3CCN4CCCC4C3)c2-c2ccncc2)cc1 (stereo not drawn) | 187 to 189 °C
NS(=O)(=O)CCCSc1ccc2ncc(Cl)n2n1 | 136 to 137 °C
CC(C)Sc1c(C(=O)O)sc2cccc(Cl)c12 | 107 to 109 °C
CCCCCCCCCCCCCCCCCCN(C)CC(O)CO (stereo not drawn) | 59 °C
COC(CNC(=O)CCl)OC | 33 to 36 °C
c1cc2c3c(c1)C1CCCCCCC1N3CCNC2 (stereo not drawn) | 58 to 63 °C
CC(=O)N(C)C(=N[N+](=O)[O-])N(Cc1cnc(Cl)s1)C(C)=O | 72 to 74 °C
COc1ccc2[nH]c(SCc3ncc(C)c(N4CCCC4)c3Cl)nc2c1 | 152 to 158 °C
Cc1cc(-n2ccnc2)c2cccc(OCc3c(Cl)ccc(S(=O)(=O)N4CCC[C@H]4C(=O)NCC4CCN(CCC(=O)O)CC4)c3Cl)c2n1 | 140 °C
CCOC(=O)c1[nH]c(C)c(C(C)C)c1C | 105 to 108 °C
COC(=O)c1cc(NC(=N)N)c(NC(C)=O)cc1O | 233 to 234 °C
COc1ccc2nc(Nc3cc(C)cs3)[nH]c2c1 | 143 to 146 °C
COc1ccc(NC(=O)C(Cl)Cl)cn1 | 104 to 107 °C
O=C1CCN(c2ccncc2)CC1 | 101 to 104 °C
O=[N+]([O-])c1cnc(Sc2nc(-c3ccc(Cl)cc3)n[nH]2)s1 | 181 to 184 °C
CC1CCN(C(=O)NCCc2ccc(S(=O)(=O)NC(=O)NC3CCCCC3)cc2)C(=O)C1 (stereo not drawn) | 176 to 178 °C

Results, then the molecule that gave them:

melting point | Compound
178 °C | O=c1ccc(-c2ccc(OC(F)(F)F)cc2)n[nH]1
149 to 150 °C | CN1C(=O)C2(COc3cc4c(cc32)OCCO4)c2c(C(=O)NCc3ccc(F)cc3)cccc21 (stereo not drawn)
144 to 145 °C | CN1CCC(O)c2cccc(CSc3nc4ccccc4[nH]3)c21 (stereo not drawn)
231 to 233 °C | COC(=O)C1=C(C)NC(CO)=C(C(=O)OC)C1c1cccc2c(=O)c(C)c(-c3ccccc3)oc12 (stereo not drawn)
174 °C | CCOc1ccc2c(c1)C(C)(c1ccccc1Cl)C(=O)N2S(=O)(=O)c1ccc(C(=O)O)cc1 (stereo not drawn)
155 to 158 °C | C=CCc1c(O)ccc2oc(C(=O)c3ccc(OC)cc3)c(C)c12
151 to 153 °C | O=[N+]([O-])c1c(SCc2ccccc2)ccc2ccncc12
76 °C | O=S(=O)(Cl)c1ccc(Oc2ccc(F)cc2)cc1
213 to 215 °C | O=C(O)c1cc(O)c(-c2ccccc2)c([N+](=O)[O-])c1
83 to 84 °C | CC(=O)C(C#N)=Cc1ccccc1
193 °C | Cc1ccccc1CN1CCN(C2=NC3(C=CC(=O)C=C3)C(c3ccccc3)=C2)CC1
136 °C | O=c1[nH]c2ccccc2n1CCN1CCN(Cc2ccccc2)CC1
208 to 211 °C | COc1ccc(/C=C/C(=O)N2CC(CCl)c3c2cc(O)c2ncccc32)cc1 (stereo not drawn)
80 to 81 °C | CN(CCOc1ccc(/C=C/CO)cc1F)c1ccccn1
115 to 120 °C | Clc1cc(Cl)c(C#C[Si](c2ccccc2)(c2ccccc2)c2ccccc2)c(Cl)c1
131 to 133 °C | O=C1OCC(c2ccccc2)N1CC1C2CCC(O2)C1CO (stereo not drawn)
191 °C | Cc1ccc(S(=O)(=O)c2c(O)c3ccccc3n(C)c2=O)cc1
182 to 183 °C | O=C1NC(=O)C(=Cc2ccc(SCCc3ccccc3)cc2)S1
195 to 199 °C | COc1ccc(NC(C)=O)c(Sc2ccc(C#N)cc2[N+](=O)[O-])c1
148 to 149 °C | COc1cccc(/C=C/C(=O)Nc2cccc(NC(=N)c3ccccc3)c2)c1
195 to 196 °C | CCCS(=O)(=O)N[C@@H](CC(C)C)C(=O)N[C@@H](C(C)C)[C@@H](O)c1c(-c2ccccc2)c1=O

melting point | Compound
115 to 116 °C | CCCc1c(OCCCSc2c(F)cccc2C(=O)CCC(=O)O)ccc(C(C)=O)c1O
187 °C | O=C(O)Cc1ccc(-n2cc(Br)cn2)cc1
203 to 204 °C | CCCCN(CCCC)c1ccc(C=Cc2ccc(C=CC3=C(C#N)C(=C(C#N)C#N)OC3(c3ccccc3)C(F)(F)F)s2)c(OC)c1 (stereo not drawn)
240 to 242 °C | COc1cc(CNC(=O)c2nc3scc(COCc4ccc(C(=O)O)cc4)c3c(=O)[nH]2)ccn1
135 to 136 °C | CCN(c1ccc([N+](=O)[O-])cc1[N+](=O)[O-])S(=O)(=O)c1ccc(C)cc1
86.4 °C | CCC1(CC)CSc2ccccc2N(c2ccccc2)C1=O
211 to 213 °C | Cc1cc(O)ccc1-n1cc(C(=O)O)c(=O)cc1C1=CCCC1
223 to 225 °C | O=C(O)c1cccc(NCc2cccs2)c1C(=O)O
103 to 104 °C | COc1ccc(CCC(C)NC(Cc2ccccc2C)=NC#N)cc1 (stereo not drawn)
143 °C | COc1ccc(Cn2c(=O)oc(=O)c3cc(F)cnc32)cc1
158 to 160 °C | O=C1c2ccccc2C(=O)N1Cc1ccc(/C=C/C(c2cc(Cl)c(Cl)c(Cl)c2)C(F)(F)F)c2ccccc12 (stereo not drawn)
65 to 66 °C | COC(=O)c1cc(Br)cc([N+](=O)[O-])c1SCc1ccccc1
146 °C | COc1ccc(Cn2nc(C3CCN(CCc4c(C)nc5n(c4=O)CCS5)CC3)c3ccc(F)cc32)cc1
145 to 146 °C | Cn1cc(-c2cccc(F)c2)c(=O)c(-c2cccc(Cl)c2)c1
212 to 214 °C | C=C(COC1CC2C3CCC4=CC(=O)C=CC4(C)C3(F)C(O)CC2(C)C1(O)C(=O)CCl)c1ccccc1 (stereo not drawn)
100 °C | C[Si](C)(C)C1=C(c2ccccc2)C(c2ccccc2)=C([Si](C)(C)C)[Si]1(C)C
212 to 213 °C | CCCCc1ncc(/C=C(\Cc2cccs2)C(=O)O)n1Cc1ccc(C(=O)O)cn1
96 to 97 °C | O=C1O[C@@H]2C[C@@]1(O)C[C@H]1OC(c3ccccc3)O[C@@H]21 (stereo partly drawn)
183 to 184 °C | Cc1ccc2c(c1)C(C(=O)O)c1ccccc1CO2 (stereo not drawn)
116 to 117 °C | CCOC(=NC(=O)c1ccccc1)N1Cc2ccccc2-c2ccccc2C1
112 to 115 °C | O=C(Nc1nccs1)C(CC1CCCC1)c1ccc(-c2ccc3[nH]ccc3c2)cc1 (stereo not drawn)

melting point | Compound
177 to 178 °C | CCN(c1ccc(C)c2cc(-c3ncc(CCl)s3)[nH]c12)S(=O)(=O)c1cccs1
> 250 °C | O=C(CSCc1cc(Br)cc2[nH]c(=O)c(=O)[nH]c12)Nc1ccccc1
> 300 °C | Cc1ccn(-c2nccc3[nH]c(=O)ccc23)n1
83 °C | O=C(c1ccc(Cl)cc1Cl)C1(c2cccnc2)CC1
42 °C | Cc1c(C(=O)c2ccccc2)cccc1[N+](=O)[O-]
237 to 238 °C | NC(=O)c1nnn(Cc2ccc(S(=O)c3ccc(Cl)cc3)c(Cl)c2)c1N (stereo not drawn)
181 to 183 °C | COc1ccc(S(=O)(=O)c2ccccc2)cc1S(=O)(=O)NCCc1cccnc1
205 to 206 °C | COC(=O)c1ccc(NC(=O)c2sc3ccc(OC)cc3c2Cl)cc1
85 to 86 °C | O=C(O)C=Cc1ccc(CCNS(=O)(=O)c2ccc(Cl)cc2)cc1
261 to 262 °C | Cn1c2ccc(Cl)cc2c2c(CC(=O)N3CCCC3)nn(-c3ccccc3)c(=O)c21
45 to 46.5 °C | CCOC(=O)c1cccc(OCc2ccc3ccccc3c2)c1
91 to 93 °C | Cc1ccccc1-c1cc(-n2cncn2)ncc1C(=O)N(C)Cc1cc(C(F)(F)F)cc(C(F)(F)F)c1
205 to 207 °C | CCC(C)(C)NC(Nc1cc(C(F)(F)F)cc(C(F)(F)F)c1)=C(C#N)S(=O)(=O)c1ccc(Cl)cc1
127 to 128 °C | COc1ccc(-c2ncn(C3CCCCO3)c2-c2ccc(OC)cc2)cc1 (stereo not drawn)
127 to 128 °C | O=C(NC1(Cc2ccccc2)C=CCC1)C(Cl)(Cl)Cl (stereo not drawn)
51.5 to 53 °C | CCCCCCCCCCCCOc1ccc([N+](=O)[O-])cc1
91 to 93 °C | CC(Oc1ccc(OC(F)(F)F)cc1)c1ccnc2ncnn12 (stereo not drawn)
95 to 97 °C | CC(C(=O)N(C)C)n1ccc(-c2cccs2)n1 (stereo not drawn)
110 to 112 °C | O=C1C(c2ccc(Cl)cc2)Sc2ccc3ccccc3c2N1CCCCl (stereo not drawn)
